Data as given in ChEMBL document CHEMBL1149301, “Benzoyl ring halogenated classical 2-amino-6-methyl-3,4-dihydro-4-oxo-5-substituted thiobenzoyl-7H-pyrrolo[2,3-d]pyrimidine antifolates as inhibitors of thymidylate synthase and as antitumor agents” (J Med Chem, 2004).

Legend:
[1] = Cytotoxicity against HCC2998 cells; type: cell-based, HCC 2998; details: human
Thymidylate synthase [2] = biological target: Thymidylate synthase (Escherichia coli, UniProt C3SWJ7); test: Inhibition of Escherichia coli thymidylate synthase
R2 = test: Growth inhibition of MTX-resistant human CCRF-CEM R2 cells; type: functional, cell-based
[3] = Cytotoxicity against human CCRF-CEM leukemia cells; type: cell-based
Dihydrofolate reductase [4] = biological target: T1, Dihydrofolate reductase (Escherichia coli, UniProt P0ABQ4)
T1 sequence (P0ABQ4 whole entry): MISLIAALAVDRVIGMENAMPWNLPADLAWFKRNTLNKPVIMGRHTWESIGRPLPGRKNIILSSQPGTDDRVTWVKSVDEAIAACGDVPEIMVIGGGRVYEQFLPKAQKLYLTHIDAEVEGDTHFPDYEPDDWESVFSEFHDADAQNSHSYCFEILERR
Description: Inhibition of Escherichia coli DHFR

CCRF-CEM [5] = test: Growth inhibition of MTX-resistant human CCRF-CEM R30dm cells; type: functional, cell-based
CCRF-CEM [6] = test: Growth inhibition of human CCRF-CEM leukemia cells at 5000 nM relative to leucovorin; type: functional
[7] = Cytotoxicity against NCI/ADR-RES cells; type: cell-based; details: human
Thymidylate synthase [8] = biological target: Thymidylate synthase (Homo sapiens, UniProt P04818)
Description: Inhibition of human thymidylate synthase

[9] = biological target: T2, Folylpolyglutamate synthase, mitochondrial (Homo sapiens) (UniProt Q05932); test: Ratio of relative Vmax to Km of human recombinant FPGS
T2 sequence (whole entry): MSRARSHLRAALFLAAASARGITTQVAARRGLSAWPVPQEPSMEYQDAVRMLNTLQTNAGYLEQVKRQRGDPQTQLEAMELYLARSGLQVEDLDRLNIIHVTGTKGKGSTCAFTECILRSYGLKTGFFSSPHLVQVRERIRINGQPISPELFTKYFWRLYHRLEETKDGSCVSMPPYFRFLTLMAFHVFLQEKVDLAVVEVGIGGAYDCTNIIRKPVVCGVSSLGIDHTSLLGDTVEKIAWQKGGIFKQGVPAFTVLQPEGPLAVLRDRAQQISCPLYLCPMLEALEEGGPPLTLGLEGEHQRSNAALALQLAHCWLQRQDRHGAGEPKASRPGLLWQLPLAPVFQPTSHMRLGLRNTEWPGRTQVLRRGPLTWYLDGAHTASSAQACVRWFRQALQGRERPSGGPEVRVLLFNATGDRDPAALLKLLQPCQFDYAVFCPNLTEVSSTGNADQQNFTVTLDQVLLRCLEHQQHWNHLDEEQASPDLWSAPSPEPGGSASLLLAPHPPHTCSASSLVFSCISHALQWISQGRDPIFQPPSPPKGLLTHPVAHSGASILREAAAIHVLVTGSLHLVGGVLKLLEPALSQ

R1 = test: Growth inhibition of MTX-resistant human CCRF-CEM R1 cells overexpressing DHFR
Dihydrofolate reductase [10] = biological target: T3, Dihydrofolate reductase (Homo sapiens, UniProt P00374)
T3 sequence (P00374 whole entry): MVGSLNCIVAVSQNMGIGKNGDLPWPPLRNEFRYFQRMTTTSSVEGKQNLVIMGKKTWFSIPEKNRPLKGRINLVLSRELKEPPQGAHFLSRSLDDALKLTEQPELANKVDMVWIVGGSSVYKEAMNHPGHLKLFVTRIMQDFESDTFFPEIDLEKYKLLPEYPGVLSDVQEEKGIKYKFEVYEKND

SF-268 = test: Cytotoxicity against SF268 cells; type: functional; details: Homo sapiens
[11] = Cytotoxicity against human EKVX cells; type: cell-based
[12] = Cytotoxicity against BT549 cells; type: cell-based, BT-549; details: human
CCRF-CEM [13] = test: Growth inhibition of human CCRF-CEM cells; type: functional, cell-based
CCRF-CEM [14] = test: Growth inhibition of human CCRF-CEM leukemia cells at 2400 nM relative to leucovorin; type: functional
CCRF-CEM [15] = test: Protection against 40 nM methotrexate-induced growth inhibition of human CCRF-CEM leukemia cells at 5 uM relative to control; type: functional; parameters: scale not given: the % may be the effect or the level left
CCRF-CEM [16] = test: Protection against 5000 nM N-[4-[(2-amino-6-methyl-3,4-dihydro-4-oxo-7H-pyrrolo[2,3-d]pyrimidin-5-yl)thio]-2fluorobenzoyl]-L-glutamic acid-induced growth inhibition of human CCRF-CEM cells at 5 uM relative to control; type: functional; parameters: scale not given: the % may be the effect or the level left
CCRF-CEM [17] = test: Growth inhibition of human CCRF-CEM cells by thymidine at 5 uM relative to control; parameters: scale not given: the % may be the effect or the level left
CCRF-CEM [18] = test: Protection against 2400 nM N-[4-[(2-amino-6-methyl-3,4-dihydro-4-oxo-7H-pyrrolo[2,3-d]pyrimidin-5-yl)thio]-2chlorobenzoyl]-L-glutamic acid-induced growth inhibition of human CCRF-CEM cells at 5 uM relative to control; type: functional; parameters: scale not given: the % may be the effect or the level left
CCRF-CEM [19] = test: Protection against compound 4- or 5-induced effect in human CCRF-CEM cells assessed as growth inhibition at […]; parameters: scale not given: the % may be the effect or the level left
CCRF-CEM [20] = test: Protection against methotrexate-induced effect in human CCRF-CEM cells assessed as growth inhibition at 0.1 mM; type: functional; parameters: scale not given: the % may be the effect or the level left
[21] = substrate: Cc1[nH]c2nc(N)[nH]c(=O)c2c1Sc1ccc(C(=O)N[C@@H](CCC(=O)O)C(=O)O)c(Cl)c1; test: (§1) Activity of human recombinant FPGS
[22] = substrate: Nc1nc(N)c2nc(CNc3ccc(C(=O)N[C@@H](CCC(=O)O)C(=O)O)cc3)cnc2n1; test: as §1
[23] = substrate: Cc1[nH]c2nc(N)[nH]c(=O)c2c1Sc1ccc(C(=O)N[C@@H](CCC(=O)O)C(=O)O)c(F)c1; test: as §1
[24] = substrate: Cc1[nH]c2nc(N)[nH]c(=O)c2c1Sc1ccc(C(=O)N[C@@H](CCC(=O)O)C(=O)O)c(Cl)c1; test: (§2) Activity of human recombinant FPGS relative to AMT
[25] = substrate: Cc1[nH]c2nc(N)[nH]c(=O)c2c1Sc1ccc(C(=O)N[C@@H](CCC(=O)O)C(=O)O)c(F)c1; test: as §2

Chain of Thymidylate synthase (Homo sapiens, UniProt P04818) (P04818 whole entry): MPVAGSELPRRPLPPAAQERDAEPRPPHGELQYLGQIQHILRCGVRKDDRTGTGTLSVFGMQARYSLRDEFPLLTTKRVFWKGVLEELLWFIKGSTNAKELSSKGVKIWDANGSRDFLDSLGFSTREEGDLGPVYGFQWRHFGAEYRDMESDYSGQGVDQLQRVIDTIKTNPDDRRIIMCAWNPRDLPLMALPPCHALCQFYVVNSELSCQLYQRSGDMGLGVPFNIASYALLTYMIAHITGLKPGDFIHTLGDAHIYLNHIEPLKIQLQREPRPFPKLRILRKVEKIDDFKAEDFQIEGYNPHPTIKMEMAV
Chain of Thymidylate synthase (Escherichia coli, UniProt C3SWJ7) (C3SWJ7 whole entry): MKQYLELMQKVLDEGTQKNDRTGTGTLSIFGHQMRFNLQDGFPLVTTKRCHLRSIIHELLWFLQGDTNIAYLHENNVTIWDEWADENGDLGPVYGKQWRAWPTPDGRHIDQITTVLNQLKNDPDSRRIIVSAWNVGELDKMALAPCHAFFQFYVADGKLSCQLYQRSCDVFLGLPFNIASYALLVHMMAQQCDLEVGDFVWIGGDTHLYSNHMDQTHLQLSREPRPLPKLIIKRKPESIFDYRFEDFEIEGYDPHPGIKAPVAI

`Cc1[nH]c2nc(N)[nH]c(=O)c2c1Sc1ccc(C(=O)N[C@@H](CCC(=O)O)C(=O)O)c(F)c1` showed a GI50 [1] of under 10 nM, an IC50 (Thymidylate synthase [2]) of 720 nM and an EC50 (R2) of 2450 nM. The GI50 [3] was 712 nM, the IC50 (Dihydrofolate reductase [4]) was 21000 nM and the EC50 (CCRF-CEM [5]) was 305 nM. The relative growth at 5 µM (CCRF-CEM [6]) was 10, the GI50 [7] was 383 nM and the IC50 (Thymidylate synthase [8]) was 54 nM. It also gave a Ratio [9] of 0, an EC50 (R1) of 505 nM and an IC50 (Dihydrofolate reductase [10]) of 2100 nM. The GI50 (SF-268) was 347 nM, the GI50 [11] was 6830 nM and the GI50 [12] was 2210 nM. It also gave an EC50 (CCRF-CEM [13]) of 215 nM.

Work on `Nc1nc(N)c2nc(CNc3ccc(C(=O)N[C@@H](CCC(=O)O)C(=O)O)cc3)cnc2n1` yielded a Ratio [9] of 0.23.

`Cc1[nH]c2nc(N)[nH]c(=O)c2c1Sc1ccc(C(=O)N[C@@H](CCC(=O)O)C(=O)O)c(Cl)c1` gave a GI50 [1] of 1480 nM, an IC50 (Thymidylate synthase [2]) of 5100 nM and an EC50 (R2) of 12000 nM. For the same molecule, the IC50 (Dihydrofolate reductase [4]) was 40000 nM, the EC50 (CCRF-CEM [5]) was 1200 nM and the inhibition at 2.4 µM (CCRF-CEM [14]) was 11%. It also gave a GI50 [7] of 8540 nM, an IC50 (Thymidylate synthase [8]) of 51 nM and a Ratio [9] of 0. It also gave an EC50 (R1) of 1900 nM, an IC50 (Dihydrofolate reductase [10]) of 11000 nM and a GI50 (SF-268) of 7440 nM. The GI50 [11] was 758 nM, the GI50 [12] was under 10 nM and the EC50 (CCRF-CEM [13]) was 690 nM.

Molecule `Cc1cn([C@H]2C[C@H](O)[C@@H](CO)O2)c(=O)[nH]c1=O` [DOXRIBTIMINE] has an Activity (CCRF-CEM [15]) of 10%, an Activity (CCRF-CEM [16]) of 96% and an Activity (CCRF-CEM [17]) of 40%. The Activity (CCRF-CEM [18]) was 92%.

`CN(Cc1cnc2nc(N)nc(N)c2n1)c1ccc(C(=O)N[C@@H](CCC(=O)O)C(=O)O)cc1` [METHOTREXATE] gave an EC50 (R2) of 2100 nM and an EC50 (R1) of 680 nM.

With `Nc1nc(=O)c2c([nH]1)NCC(CNc1ccc(C(=O)N[C@@H](CCC(=O)O)C(=O)O)cc1)N2C=O` (some centres not stated) [LEUCOVORIN] the Activity (CCRF-CEM [19]) was 90% and the Activity (CCRF-CEM [20]) was 6%.

With `Cc1[nH]c2nc(N)[nH]c(=O)c2c1Sc1ccc(C(=O)N[C@@H](CCC(=O)O)C(=O)O)cc1` the IC50 (Dihydrofolate reductase [4]) was 21000 nM and the IC50 (Dihydrofolate reductase [10]) was 2100 nM.

B1: Folylpolyglutamate synthase, mitochondrial (Homo sapiens), Q05932 (protein)
chain: MSRARSHLRAALFLAAASARGITTQVAARRGLSAWPVPQEPSMEYQDAVRMLNTLQTNAGYLEQVKRQRGDPQTQLEAMELYLARSGLQVEDLDRLNIIHVTGTKGKGSTCAFTECILRSYGLKTGFFSSPHLVQVRERIRINGQPISPELFTKYFWRLYHRLEETKDGSCVSMPPYFRFLTLMAFHVFLQEKVDLAVVEVGIGGAYDCTNIIRKPVVCGVSSLGIDHTSLLGDTVEKIAWQKGGIFKQGVPAFTVLQPEGPLAVLRDRAQQISCPLYLCPMLEALEEGGPPLTLGLEGEHQRSNAALALQLAHCWLQRQDRHGAGEPKASRPGLLWQLPLAPVFQPTSHMRLGLRNTEWPGRTQVLRRGPLTWYLDGAHTASSAQACVRWFRQALQGRERPSGGPEVRVLLFNATGDRDPAALLKLLQPCQFDYAVFCPNLTEVSSTGNADQQNFTVTLDQVLLRCLEHQQHWNHLDEEQASPDLWSAPSPEPGGSASLLLAPHPPHTCSASSLVFSCISHALQWISQGRDPIFQPPSPPKGLLTHPVAHSGASILREAAAIHVLVTGSLHLVGGVLKLLEPALSQ
B1 showed a Km [21] of under 250 µM, a Vmax [22] of 1 and a Km [23] of under 250 µM. It also gave a Vmax [24] of 0 and a Vmax [25] of 0.
